Assay results taken from patent publication US10564162B2, “Predictive biomarkers” (BIONOMICS LIMITED, priority 2014, dated 2020).

How the values were obtained:
[1] = test system: tumour endothelial cells (activated) and normal endothelial cells (quiescent); test: Potency against activated versus quiescent endothelial cells; format: cell-based
[2] = Maximum tolerated dose of BNC105P in patients; format: in vivo, Human; settings: intravenous infusion over 10 minutes, days 1 and 8 of 21 day cycle, with 10 mg oral everolimus daily
Procedure: (§1) Patients in the BNC105P in combination with everolimus study group (the “combination arm”) were administered 10 mg oral everolimus daily. On days 1 and 8 of the 21 day cycle period, the patients were administered 16 mg/m^2 BNC105P, which had been determined to be the maximum tolerated dose, by intravenous infusion over a 10 minute period (FIG. 1). Treatment was continued until disease progressed, intolerable toxicity became apparent, or until consent was withdrawn. A control group of patients were administered with everolimus alone.

[3] = test system: Sex Hormone-Binding Globulin (SHBG); test: Disruptor-1 trial: plasma SHBG level post versus pre BNC105P infusion (Human CustomMAP, Luminex); format: in vivo
Excerpt: (§2) The objective of the study was to determine the response rate of patients administered BNC105P (vascular disrupting agent) in combination with everolimus (mTOR inhibitor) in patients who had progressed from prior tyrosine kinase inhibitor therapy. In addition, the present inventors determined the improvement in 6-months progression free survival (PFS) with the addition of BNC105P to everolimus (Afinitor). A control group of patients received everolimus alone.
as §1
(§3) Human EDTA plasma samples were taken from patients to quantitatively measure the concentration of 56 analytes from the Human CustomMAP at Myriad RBM (MRBM). […]
(§4) The biomarker levels at each time and the change in biomarker levels were examined. The mean change from pre- to post-infusion was calculated as the mean of C1D1 pre-infusion minus C1D1 post-infusion. […]

[4] = test system: Matrix Metalloproteinase-9 (MMP-9); test: Disruptor-1 trial: plasma MMP-9 level post versus pre BNC105P infusion (Human CustomMAP, Luminex); format: in vivo
Excerpt: as §2, §1, §3, §4

[5] = test system: Serum Amyloid P-Component (SAP); test: Disruptor-1 trial: plasma SAP level post versus pre BNC105P infusion (Human CustomMAP, Luminex); format: in vivo
Excerpt: as §2, §1, §3, §4

[6] = test system: Stem Cell Factor (SCF); test: Disruptor-1 trial: plasma SCF level post versus pre BNC105P infusion (Human CustomMAP, Luminex); format: in vivo
Excerpt: as §2, §1, §3, §4

[7] = test system: Myoglobin (MB); test: Disruptor-1 trial: plasma Myoglobin level post versus pre BNC105P infusion (Human CustomMAP, Luminex); format: in vivo
Excerpt: as §2, §1, §3, §4

[8] = test system: tubulin; test: Tubulin polymerisation inhibition; format: biochemical
[9] = plasma, renal cell carcinoma patients, 16 mg/m^2 BNC105P i.v. infusion plus 10 mg oral everolimus daily, post versus pre infusion
[10] = post/baseline plasma ratio after BNC105P, patients split at the median

| SMILES | selectivity between activated (tumour) and quiescent (normal) endothelial cells (in words) [1] | maximum tolerated dose [2] [mg/m^2] | Median Post/Baseline Ratio, SHBG [3, 9] | Biomarker change Ratio Range associated with better PFS, SHBG [3, 10] | Median Post/Baseline Ratio, MMP-9 [4, 9] | Biomarker change Ratio Range associated with better PFS, MMP-9 [4, 10] | Median Post/Baseline Ratio, SAP [5, 9] | Biomarker change Ratio Range associated with better PFS, SAP [5, 10] | Median Post/Baseline Ratio, SCF [6, 9] | Biomarker change Ratio Range associated with better PFS, SCF [6, 10] | Median Post/Baseline Ratio, Myoglobin [7, 9] | Biomarker change Ratio Range associated with better PFS, Myoglobin [7, 10] | tubulin polymerisation inhibition (in words) [8] |
| --- | --- | --- | --- | --- | --- | --- | --- | --- | --- | --- | --- | --- | --- |
| COc1ccc(/C=C\c2cc(OC)c(OC)c(OC)c2)cc1O [Combretastatin A4, reference compound] | equally potent against quiescent and activated endothelial cells |  |  |  |  |  |  |  |  |  |  |  |  |
| COc1cc(C(=O)c2c(C)oc3c(OP(=O)([O-])[O-])c(OC)ccc23)cc(OC)c1OC.[Na+].[Na+] [BNC105P, disodium [6-methoxy-2-methyl-3-(3,4,5-trimethoxybenzoyl)-1-benzofuran-7-yl]phosphate] |  | 16 | 0.92 | ≤0.92 | 1.060 | >1.060 | 0.95 | ≤0.95 | 1.0 | >1 | 0.935 | ≤0.935 |  |
| COc1cc(C(=O)c2c(C)oc3c(O)c(OC)ccc23)cc(OC)c1OC [III, 2-methyl-7-hydroxy-3-(3,4,5-trimethoxybenzoyl)-6-methoxybenzofuran] | show selectivity towards tumor endothelial cells (activated) over normal endothelial cells (quiescent) |  |  |  |  |  |  |  |  |  |  |  | potent tubulin polymerisation inhibitors |
